{
  "source": "patent US7576188B2",
  "about": "“Antitumoral treatments” (Pharma Mar, S.A.U., priority 2004, dated 2009)",
  "key": {"[1]": {"tested_on": "K562, CEM and SKI-DLCL cell lines", "experiment": "Combination of IC20 aplidine with a dose range of additional drug (Table 1)", "assay_type": "cell-based", "procedure": "Drug combination studies were carried out on established cell lines rather than primary cells. We studied three cell lines, viz. K562 as a model for acute myeloid leukemia, CEM representing acute lymphocytic leukemia and SKI-DLCL representing diffuse large cell lymphoma. Combination studies with IC20 and IC 50 dose of aplidine with a dose range of methotrexate, cytosine arabinoside and doxorubicin were tested to determine if aplidine could potentiate the effect of these drugs."}, "CEM-T leukemic cells": {"tested_on": "CEM-T leukemic cells", "experiment": "In vivo antitumor effect in SCID mice xenograft model", "conditions": "AraC alone at 50 mg/kg, intra-peritoneally", "procedure": "SCID mice were inoculated subcutaneously in the right flank with 10^7 CEM-T leukemic cells. They were observed twice weekly for tumor formation at the site of inoculation. After establishment of palpable tumor, alidine was injected as single agent and in combination with several doses of AraC to determine the antitumor effect. Mice were randomized to receive alidine alone at doses of 0.75 mg/kg and 1 mg/kg, AraC alone at 50 mg/kg, or combination of Aplidine and AraC for all dose combinations. […] All drugs were administered intra-peritoneally, and tumor size was compared to a control group of mice not receiving any treatment and for combination groups, compared to tumor sizes with single agent treatment."}, "SKI-DLCL cells [2]": {"tested_on": "SKI-DLCL cells", "conditions": "for IC50: 96 hours", "experimental": "(§3) Cell viability is measured by XTT assay in an automated plate reader.\n(§4) All the citotoxicity studies were performed by using XTT or MTS.\n(§5) Data was obtained after cell incubation for 96 hours and using XTT asay. The results represent means of three different experiments."}, "K562 cells [3]": {"tested_on": "K562 cells", "experiment": "XTT/MTS cytotoxicity, single agents and combinations, K562", "conditions": "for Viability (% of control): K562, single agent at its IC50 dose", "experimental": "as §3\n(§6) Chou-Talalay analysis was used to analyze the drug combinations.\n(§7) All the citotoxicity studies were performed by using XTT or MTS. We first determined the IC50 dose of these drugs in SKI-DLCL, CCRF-CEM and K562 cell lines. We investigated drug combinations using IC50(Aplidine):IC50(DrugX) fixed ratio."}, "CCRF-CEM cells": {"tested_on": "CCRF-CEM cells", "experiment": "XTT/MTS cytotoxicity, single agents and combinations, CCRF-CEM", "conditions": "for Viability (% of control): single agent at its IC50 dose", "experimental": "as §3, §4, §5"}, "SKI-DLCL cells [4]": {"tested_on": "SKI-DLCL cells", "experiment": "cells", "conditions": "96 h", "experimental": "as §3, §4, §5"}, "[5]": {"tested_on": "chronic lymphocytic leukemia (CLL) cells", "experiment": "Viability of fresh primary CLL cells cultured with aplidine", "assay_type": "cell-based, human", "procedure": "(§1) Aplidine was tested against various primary cells from patients with hematologic malignancies. The cells used were: • fresh cells obtained from six chronic lymphocytic leukemia patients • primary cell from a patient with preB-ALL (DM4)\n(§2) Patient samples were obtained with prior consent and CLL cells were isolated by density gradient centrifugation over histopaque. The media used was RPMI supplemented with 10% autologous serum and L-glutamine. The cultures were incubated with 10 nM aplidine and cell viability was measured days 3, 7,11 and 18 and compared with viability of untreated cells and STI 571 (0.5 mM)."}, "preB-ALL (DM4) cells": {"tested_on": "preB-ALL (DM4) cells", "experiment": "Viability of primary preB-ALL (DM4) cells cultured with aplidine", "assay_type": "cell-based, human", "procedure": "as §1, §2"}, "[6]": {"experiment": "Determination of maximum tolerated dose in SCID mice", "assay_type": "in vivo, C.B.-17 scid/scid (SCID) mice", "conditions": "total dose given in five daily doses", "text": "We have used an in vivo model of human lymphoma in SCID mice for this purpose. Specifically, we have used CCRF-CEMS cells and CB.17 scid/scid mice. We have experience with this model and have evaluated drug treatments using this xenograft (Lacerda J. F. et al. Blood 85 (10): 2675-2679 (1995))."}, "K562 cells [7]": {"tested_on": "K562 cells", "experimental": "as §3, §6, §7"}, "ALL-MOLT4 cells": {"tested_on": "ALL-MOLT4 cells", "conditions": "cited from earlier work"}, "[8]": {"tested_on": "AML and ALL samples from pediatric patients", "conditions": "de novo or relapsed ALL and AML; cited from earlier work"}, "[9]": {"conditions": "solubilised, heat and light stress; cited from earlier work"}, "[10]": {"conditions": "at maximum tolerated doses, clinical Phase I; except for mild lymphopenia; cited from earlier work"}, "[11]": {"conditions": "SKI-DLCL, single agent at its IC50 dose"}, "[12]": {"conditions": "read-out: IC50 dose, single agent, SKI-DLCL"}, "[13]": {"conditions": "read-out: IC50 dose, single agent, 96 hours"}, "[14]": {"conditions": "Homo sapiens, K562, 96 h, read-out: IC50 dose, single agent, K562, 96 hours"}, "[15]": {"conditions": "Homo sapiens, K562, No Aplidine"}, "[16]": {"conditions": "Homo sapiens, K562, with IC20 Aplidine (0.5 nM)"}},
  "note": "Read-outs that look alike come from different tables or passages of the source. Numbered stars: 1 amine (or outer) side, 2 acyl side, 3 side chain; on linkers, the order of the positions; unused ones are H or OH. Bridge positions count the residues as written; N and C are the ends. Square brackets hold non-standard residues; d marks the D form. Peptide text beside a SMILES is read from it. * marks the point of attachment. X1 = CC[C@H](C)[C@@H](N[*:1])[C@@H](O)CC(=O)O[C@H](C(=O)[C@H](C)C(=O)[*:2])C(C)C; NMeY = CN[C@@H](Cc1ccc(O)cc1)C(=O)O; dNMeL = CN[C@H](CC(C)C)C(=O)O; Pyruvoyl = CC(=O)C(=O)*",
  "data": [
    {"smiles": "Nc1ccn([C@@H]2O[C@H](CO)[C@@H](O)[C@@H]2O)c(=O)n1", "note": "[AraC, cytosine arabinoside]", "values": [
      {"measurement": "IC50", "setting": "[1]; No Aplidine", "value": 30, "unit": "nM"},
      {"measurement": "IC50", "setting": "[1]; with IC20 Aplidine (0.5 nM)", "value": 6, "unit": "nM"},
      {"measurement": "in vivo antitumor effect (tumor growth)", "setting": "CEM-T leukemic cells", "value": "tumor growth was inhibited but no tumor regression occurred"},
      {"measurement": "Viability (% of control)", "setting": "SKI-DLCL cells [2]; [11]", "value": "50 % of control"},
      {"measurement": "IC50", "setting": "SKI-DLCL cells [2]; read-out: IC50 dose of AraC, SKI-DLCL, in combination with IC20 (APL), XTT", "value": 1.6, "unit": "nM"},
      {"measurement": "IC50", "setting": "SKI-DLCL cells [2]; [12]", "value": 30, "unit": "nM"},
      {"measurement": "Viability (% of control)", "setting": "K562 cells [3]", "value": "50 % of control"},
      {"measurement": "IC50", "setting": "K562 cells [3]; read-out: IC50 dose, single agent, K562, 96 hours", "value": 30, "unit": "nM"},
      {"measurement": "IC50", "setting": "CCRF-CEM cells; read-out: IC50 dose of AraC, in combination with IC20 (APL), 96 hours, XTT", "value": 0.8, "unit": "nM"},
      {"measurement": "IC50", "setting": "CCRF-CEM cells; [13]", "value": 10, "unit": "nM"},
      {"measurement": "Viability (% of control)", "setting": "CCRF-CEM cells", "value": "56.4 % of control"}
    ]},
    {"smiles": "CC[C@]1(O)C[C@@H]2CN(CCc3c([nH]c4ccccc34)[C@@](C(=O)OC)(c3cc4c(cc3OC)N(C)[C@H]3[C@@](O)(C(=O)OC)[C@H](OC(C)=O)[C@]5(CC)C=CCN6CC[C@]43[C@@H]65)C2)C1", "note": "[Vinb, vinblastine]", "values": [
      {"measurement": "Viability (% of control)", "setting": "SKI-DLCL cells [2]; [11]", "value": "50 % of control"},
      {"measurement": "IC50", "setting": "SKI-DLCL cells [4]; read-out: IC50 dose", "value": 4, "unit": "nM"}
    ]},
    {"smiles": "CC[C@H](C)[C@H]1NC(=O)[C@@H](NC(=O)[C@@H](CC(C)C)N(C)C(=O)[C@@H]2CCCN2C(=O)C(C)=O)[C@@H](C)OC(=O)[C@H](Cc2ccc(OC)cc2)N(C)C(=O)[C@@H]2CCCN2C(=O)[C@H](CC(C)C)NC(=O)[C@@H](C)C(=O)[C@H](C(C)C)OC(=O)C[C@@H]1O", "note": "[aplidine, Dehydrodidemnin B] (Pyruvoyl-P[dNMeL]T[X1]LP[NMeY](Me); ester 3-C)", "values": [
      {"measurement": "growth of CLL cells in culture", "setting": "[5]; FIG. 1", "value": "inhibits growth"},
      {"measurement": "IC50", "setting": "[5]; Homo sapiens, CLL cell, 264 h, primary CLL samples, 11 day exposure", "value": 10, "unit": "nM"},
      {"measurement": "inhibition of preB-ALL cells in culture", "setting": "preB-ALL (DM4) cells; FIG. 2", "value": "potent inhibitor"},
      {"measurement": "IC50", "setting": "preB-ALL (DM4) cells; Homo sapiens, 72 h, DM4 line, 3 day exposure", "value": 10, "unit": "nM"},
      {"measurement": "maximum dose that can be tolerated (MTD)", "setting": "[6]", "value": 1, "unit": "mg/kg/week"},
      {"measurement": "Viability (% of control)", "setting": "SKI-DLCL cells [2]", "value": "50 % of control"},
      {"measurement": "IC50", "setting": "SKI-DLCL cells [2]; [12]", "value": 0.5, "unit": "nM"},
      {"measurement": "Viability (% of control)", "setting": "K562 cells [7]", "value": "50 % of control"},
      {"measurement": "IC50", "setting": "SKI-DLCL cells [4]; read-out: IC50 dose, single agent, SKI-DLCL, 96 hours", "value": "0.5 to 1", "unit": "nM"},
      {"measurement": "VEGF secretion", "setting": "ALL-MOLT4 cells", "value": "block VEGF secretion"},
      {"measurement": "concentration with in vitro cytotoxic activity", "setting": "[8]", "value": 5, "unit": "nM"},
      {"measurement": "degradation under stress testing", "setting": "[9]", "value": "substantial degradation"},
      {"measurement": "myelotoxicity", "setting": "[10]", "value": "not myelotoxic"},
      {"measurement": "IC50", "setting": "K562 cells [3]; [14]", "value": "0.5 to 1", "unit": "nM"},
      {"measurement": "IC50", "setting": "K562 cells [3]; read-out: IC50 dose, single agent, K562, 96 hours, listed as APL", "value": 1, "unit": "nM"},
      {"measurement": "IC50", "setting": "CCRF-CEM cells; [13]", "value": 0.5, "unit": "nM"}
    ]},
    {"smiles": "COc1cccc2c1C(=O)c1c(O)c3c(c(O)c1C2=O)C[C@@](O)(C(=O)CO)C[C@@H]3O[C@H]1C[C@H](N)[C@H](O)[C@H](C)O1", "note": "[Dox, doxorubicin]", "values": [
      {"measurement": "IC50", "setting": "[1]; [15]", "value": 18, "unit": "nM"},
      {"measurement": "IC50", "setting": "[1]; [16]", "value": 1, "unit": "nM"},
      {"measurement": "Viability (% of control)", "setting": "SKI-DLCL cells [2]; [11]", "value": "50 % of control"},
      {"measurement": "IC50", "setting": "SKI-DLCL cells [4]; read-out: IC50 dose", "value": 5, "unit": "nM"}
    ]},
    {"smiles": "CN(Cc1cnc2nc(N)nc(N)c2n1)c1ccc(C(=O)N[C@@H](CCC(=O)O)C(=O)O)cc1", "note": "[MTX, methotrexate]", "values": [
      {"measurement": "IC50", "setting": "[1]; [15]", "value": 5, "unit": "nM"},
      {"measurement": "IC50", "setting": "[1]; [16]", "value": 0.5, "unit": "nM"},
      {"measurement": "IC50", "setting": "CCRF-CEM cells; [13]", "value": 10, "unit": "nM"},
      {"measurement": "Viability (% of control)", "setting": "CCRF-CEM cells", "value": "50 % of control"}
    ]},
    {"smiles": "O=C1c2c(O)ccc(O)c2C(=O)c2c(NCCNCCO)ccc(NCCNCCO)c21", "note": "[Mitox, mitoxantrone]", "values": [
      {"measurement": "Viability (% of control)", "setting": "SKI-DLCL cells [2]; [11]", "value": "50 % of control"},
      {"measurement": "IC50", "setting": "SKI-DLCL cells [4]; read-out: IC50 dose", "value": 5, "unit": "nM"},
      {"measurement": "IC50", "setting": "K562 cells [3]; [14]", "value": 7.5, "unit": "nM"},
      {"measurement": "Viability (% of control)", "setting": "K562 cells [3]", "value": "50.7 % of control"},
      {"measurement": "IC50", "setting": "CCRF-CEM cells; [13]", "value": 30, "unit": "nM"},
      {"measurement": "Viability (% of control)", "setting": "CCRF-CEM cells", "value": "56 % of control"}
    ]},
    {"smiles": "C[C@H]1C[C@@H]2[C@H]([C@@H](O)C[C@@]3(C)[C@H]2CC[C@]3(O)C(=O)CO)[C@@]2(C)C=CC(=O)C=C12", "note": "[Metpred, methylprednisolone]", "values": [
      {"measurement": "Viability (% of control)", "setting": "SKI-DLCL cells [2]; [11]", "value": "51 % of control"},
      {"measurement": "IC50", "setting": "SKI-DLCL cells [4]; read-out: IC50 dose", "value": 160, "unit": "nM"}
    ]}
  ]
}
